8 molecules from ChEMBL document CHEMBL4145518, “High anticancer potency on tumor cells of dehydroabietylamine Schiff-base derivatives and a copper(II) complex” (Eur J Med Chem, 2018) can be followed below.

The term IC50 denotes the concentration needed to halve the response being measured.

In data set [1] the test system is HeLa. The data set is described as follows: Antiproliferative activity against human HeLa cells after 36 hrs by MTT assay. Type of data set: functional, cell-based. In general terms: Tetrazolium dyes change colour on reduction, which living cells bring about.
Data set [2] concerns HepG2. Put plainly: Antiproliferative activity against human HepG2 cells after 36 hrs by MTT assay. The note with it: HepG2, 36 h. The class given is functional, cell-based.
The test system of data set [3] is MCF7. Put plainly: Antiproliferative activity against human MCF7 cells after 36 hrs by MTT assay. Type of data set: functional, cell-based. The note with it: MCF7, 36 h.
For data set [4], the system named is A549. The data set is described as follows: Antiproliferative activity against human A549 cells after 36 hrs by MTT assay. Type of data set: functional, cell-based. The note with it: A549, 36 h.
Data set [5] concerns HUVEC. The data set is described as follows: Cytotoxicity against HUVEC assessed as reduction in cell viability after 36 hrs by MTT assay. Type of data set: cell-based. The note with it: Homo sapiens.
The test system of data set [6] is HepG2. Put plainly: Induction of apoptosis in human HepG2 cells assessed as early apoptotic cells at 0.1 ug/ml after 24 hrs by Annexin V/propidium iodide staining based flow cytometry (reference value: 7.92%). The class given is functional. Background: A flow cytometer gives signals particle by particle.
The test system of data set [7] is HepG2. The data set is described as follows: Induction of apoptosis in human HepG2 cells assessed as late apoptotic cells at 0.1 ug/ml after 24 hrs by Annexin V/propidium iodide staining based flow cytometry (reference value: 7.09%). The class given is functional.
Data set [8] relates to HepG2. The data set is described as follows: Induction of apoptosis in human HepG2 cells assessed as necrotic cells at 0.1 ug/ml after 24 hrs by Annexin V/propidium iodide staining based flow cytometry (reference value: 1.86%). The class given is functional.
Data set [9] deals with HepG2. The data set is described as follows: Induction of apoptosis in human HepG2 cells assessed as viable cells at 0.1 ug/ml after 24 hrs by Annexin V/propidium iodide staining based flow cytometry (reference value: 83.13%). The class given is functional. The settings on record: HepG2, 24 h, read-out: Activity.
For data set [10], the system named is HepG2. The data set is described as follows: Induction of apoptosis in human HepG2 cells assessed as early apoptotic cells at 1 ug/ml after 24 hrs by Annexin V/propidium iodide staining based flow cytometry (reference value: 7.92%). Type of data set: functional.
Data set [11] deals with HepG2. The data set is described as follows: Induction of apoptosis in human HepG2 cells assessed as late apoptotic cells at 1 ug/ml after 24 hrs by Annexin V/propidium iodide staining based flow cytometry (reference value: 7.09%). The class given is functional.
The test system of data set [12] is HepG2. Put plainly: Induction of apoptosis in human HepG2 cells assessed as necrotic cells at 1 ug/ml after 24 hrs by Annexin V/propidium iodide staining based flow cytometry (reference value: 1.86%). Type of data set: functional.
In data set [13] the test system is HepG2. Put plainly: Induction of apoptosis in human HepG2 cells assessed as viable cells at 1 ug/ml after 24 hrs by Annexin V/propidium iodide staining based flow cytometry (reference value: 83.13%). The class given is functional. The note with it: HepG2, 24 h, read-out: Activity.
Data set [14] has as its system HepG2. Put plainly: Induction of apoptosis in human HepG2 cells assessed as early apoptotic cells at 10 ug/ml after 24 hrs by Annexin V/propidium iodide staining based flow cytometry (reference value: 7.92%). Type of data set: functional.
For data set [15], the system named is HepG2. Put plainly: Induction of apoptosis in human HepG2 cells assessed as late apoptotic cells at 10 ug/ml after 24 hrs by Annexin V/propidium iodide staining based flow cytometry (reference value: 7.09%). Type of data set: functional.
The subject of data set [16] is HepG2. Put plainly: Induction of apoptosis in human HepG2 cells assessed as necrotic cells at 10 ug/ml after 24 hrs by Annexin V/propidium iodide staining based flow cytometry (reference value: 1.86%). The class given is functional.
Data set [17] has as its system HepG2. The data set is described as follows: Induction of apoptosis in human HepG2 cells assessed as viable cells at 10 ug/ml after 24 hrs by Annexin V/propidium iodide staining based flow cytometry (reference value: 83.13%). The class given is functional. The note with it: HepG2, 24 h, read-out: Activity.
Data set [18] has as its system Salmon testes DNA. The data set is described as follows: Binding affinity to salmon sperm DNA assessed as DNA intercalation at 1.5 10^-5M by ethidium bromide staining based fluorescence assay. Type of data set: nucleic-acid assay. The settings on record: Salmonidae.
Data set [19] has as its system Salmon testes DNA. Put plainly: Binding affinity to salmon sperm DNA assessed as hypochromic shift at 1.5 10^-5M by ethidium bromide staining based fluorescence assay. Type of data set: nucleic-acid assay. The settings on record: Salmonidae.
Data set [20] concerns the target T1, Androgen receptor (Homo sapiens, UniProt P10275).
T1 sequence (P10275 whole entry): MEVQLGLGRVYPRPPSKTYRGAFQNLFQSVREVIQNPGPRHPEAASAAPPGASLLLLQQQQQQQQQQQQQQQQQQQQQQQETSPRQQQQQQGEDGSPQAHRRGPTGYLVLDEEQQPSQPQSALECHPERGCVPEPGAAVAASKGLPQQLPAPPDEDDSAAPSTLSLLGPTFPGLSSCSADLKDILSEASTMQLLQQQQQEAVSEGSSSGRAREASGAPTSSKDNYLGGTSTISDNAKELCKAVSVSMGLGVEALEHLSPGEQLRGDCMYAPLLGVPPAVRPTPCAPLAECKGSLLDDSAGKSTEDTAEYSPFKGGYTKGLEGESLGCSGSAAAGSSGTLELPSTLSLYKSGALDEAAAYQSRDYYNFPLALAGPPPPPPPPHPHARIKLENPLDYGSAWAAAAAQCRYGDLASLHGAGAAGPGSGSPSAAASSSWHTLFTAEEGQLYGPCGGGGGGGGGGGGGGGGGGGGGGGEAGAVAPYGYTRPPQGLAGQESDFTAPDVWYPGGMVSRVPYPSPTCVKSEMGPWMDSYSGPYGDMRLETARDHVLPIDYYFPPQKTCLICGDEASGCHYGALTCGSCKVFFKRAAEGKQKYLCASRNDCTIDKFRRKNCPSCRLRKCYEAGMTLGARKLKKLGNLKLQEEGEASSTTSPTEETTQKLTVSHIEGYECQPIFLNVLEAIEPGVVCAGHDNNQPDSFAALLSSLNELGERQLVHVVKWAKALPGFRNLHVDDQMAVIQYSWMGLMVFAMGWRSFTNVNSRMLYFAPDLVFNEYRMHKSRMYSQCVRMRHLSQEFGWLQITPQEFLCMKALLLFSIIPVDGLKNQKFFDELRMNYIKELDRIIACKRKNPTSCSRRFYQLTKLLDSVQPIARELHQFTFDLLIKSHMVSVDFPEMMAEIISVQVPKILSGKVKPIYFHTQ
Put plainly: Binding affinity to androgen receptor (unknown origin).

The subject of data set [21] is Salmon testes DNA. Put plainly: Binding affinity to salmon sperm DNA assessed as DNA intercalation at 5 10^-5M by ethidium bromide staining based fluorescence assay. The class given is nucleic-acid assay. The note with it: Salmonidae.
In data set [22] the test system is Salmon testes DNA. The data set is described as follows: Binding affinity to salmon sperm DNA assessed as hypochromic shift at 5 10^-5M by ethidium bromide staining based fluorescence assay. Type of data set: nucleic-acid assay. The note with it: Salmonidae.
A short description of data set [23]: Selectivity index, ratio of IC50 for HUVEC to IC50 for human HepG2 cells. Type of data set: toxicity. The settings on record: HUVEC and HepG2 cells, read-out: Ratio IC50.
The test system of data set [24] is Salmon testes DNA. The data set is described as follows: Binding affinity to salmon sperm DNA assessed as DNA intercalation by ethidium bromide staining based fluorescence assay. The settings on record: Salmonidae. The class given is nucleic-acid assay.

Calls of active or inactive are those of the source. The calls are words filed in the database; no cut-off is given here.

As to `CC(C)c1ccc2c(c1)CC[C@H]1[C@](C)(C/N=C/c3ncc[nH]3)CCC[C@]21C`, the IC50 in data set [1] was 3.22 µM; in data set [2], 0.24 µM; in [3], 4.28 µM; in data set [4], 3.17 µM; in data set [5], 7.67 µM. Further, the Activity in [6] stood at 26.33%; in data set [7], 18.54%; in data set [8] it was 0.69%; in data set [10], 51.15%; in data set [11] it was 10.13%; in [12], 0.25%. The figures for the Activity in data set [14], in [15] and in [16] were 98.32%, 0.32% and 0%, respectively. Further, in [9], the viability at 0.1 µg/mL is 54.4%. Further, the viability at 1 µg/mL in data set [13] worked out at 38.5%. In data set [17], the viability at 10 µg/mL turned out to be 1.06%. The outcome in [18] and in data set [19] was Active.
As to `CC(C)c1ccc2c(c1)C(=O)C[C@H]1[C@@](C)(CNC(=O)c3ccccc3)CCC[C@]21C`, the IC50 in data set [20] worked out at 83.8 µM.
As to `CC(C)c1ccc2c(c1)CC[C@H]1[C@](C)(C/N=C/c3cccc(C(C)(C)C)c3O)CCC[C@]21C`, the IC50 was 20 µM in [1]; 10.5 µM in data set [2]; 25 µM in data set [3]; 41 µM in data set [4]; 33 µM in data set [5]. Also, in data set [21], the outcome was Active.
As to `CCN(CC)c1ccc(/C=N/C[C@]2(C)CCC[C@]3(C)c4ccc(C(C)C)cc4CC[C@@H]23)c(O)c1`, the IC50 in data set [1] was 11.2 µM; in [2], 10.7 µM; in data set [3], 14.1 µM; in [4], 17 µM; in data set [5] it was 43.1 µM. Further, the result in [21] was Active.
`CC(C)c1ccc2c(c1)CC[C@H]1[C@](C)(C/N=C/c3c[nH]cn3)CCC[C@]21C`: the IC50 was 7.86 µM in [1]; 0.14 µM in [2]; 2.58 µM in data set [3]; 7 µM in [4]; 26 µM in data set [5]. Also, the Activity in data set [6] amounted to 33.71%; in data set [7], 12.9%; in [8], 0.66%; in data set [10], 60.49%; in data set [11], 6.39%; in data set [12] it was 0.23%. The Activity in data set [14] is given as 98.78%; in [15], 0.29%; in data set [16], 0%. The viability at 0.1 µg/mL in data set [9] came to 52.7%. The viability at 1 µg/mL in data set [13] stood at 32.9%. In addition, the viability at 10 µg/mL in [17] worked out at 0.93%. The result in data set [21] and in data set [22] was Active. Moreover, in [23], the selectivity ratio is 180.
As for `COc1cccc2c1C(=O)c1c(O)c3c(c(O)c1C2=O)C[C@@](O)(C(=O)CO)C[C@@H]3O[C@H]1C[C@H](N)[C@H](O)[C@H](C)O1` [DOXORUBICIN], the Activity in [6] is 34.49%; in [7] it was 11.74%; in [8], 0.62%; in [10], 47.19%; in data set [11] it was 12.6%; in data set [12] it was 0.35%. Also, the Activity in data set [14] is given as 70.12%; in data set [15], 3.57%; in data set [16] it was 0%. Further, in data set [9], the viability at 0.1 µg/mL is 53.1%. Further, the viability at 1 µg/mL in data set [13] is 39.9%. In addition, the viability at 10 µg/mL in data set [17] is 26.3%. In addition, the outcome in data set [24] was Active.
In the case of `CC(C)c1ccc2c(c1)CC[C@H]1[C@](C)(C/N=C/c3cc(C(C)(C)C)cc(C(C)(C)C)c3O)CCC[C@]21C`, the IC50 in data set [1] came to 41 µM; in data set [2], 17.6 µM; in data set [3], 5.41 µM; in data set [4] it was 40 µM; in [5], 41 µM. For the same molecule, in data set [21], the outcome was Active.
For `CC(C)c1ccc2c(c1)CC[C@H]1[C@](C)(CN)CCC[C@]21C`, the IC50 amounted to 2.02 µM in data set [1]; 2.56 µM in [2]; 19.4 µM in data set [3]; 5.02 µM in [4]; 1.27 µM in data set [5]. Also, the Activity in [6] is 22.94%; in data set [7] it was 15.46%; in [8] it was 0.69%; in data set [10] it was 44.79%; in data set [11] it was 22.98%; in data set [12], 0.24%. Besides, the figures for the Activity in data set [14], in data set [15] and in [16] were 91.91%, 0.7% and 0%, respectively. In data set [9], the viability at 0.1 µg/mL stood at 60.9%. For the same molecule, the viability at 1 µg/mL in data set [13] stood at 32%. For the same molecule, the viability at 10 µg/mL in data set [17] came out at 1.4%.
